# Source: patent US9382295B2, “Cyclic depsipeptide compounds and their uses” (Cypralis Limited, priority 2012, dated 2016)
# Where two headings read alike, the source gives them in different places. Numbered stars: 1 amine (or outer) side, 2 acyl side, 3 side chain; on linkers, the order of the positions; unused ones are H or OH. Square brackets hold non-standard residues; d marks the D form. Peptide text beside a SMILES is read from it. X26 = C[C@H](C/C=C/c1cccc(N2CCOCC2)n1)[C@@H](O)[C@H](C(=O)[*:2])N(C)[*:1]; X19 = C[C@H](CCN1CCCC(C(F)(F)F)C1)[C@@H](O)[C@H](C(=O)[*:2])N(C)[*:1]; X30 = C[C@H](CCN(C)Cc1nnn[nH]1)[C@@H](O)[C@H](C(=O)[*:2])N(C)[*:1]; X20 = C[C@H](CCN1CCC(F)(F)CC1)[C@@H](O)[C@H](C(=O)[*:2])N(C)[*:1]; X9 = C[C@H](CC(=O)NCc1ccccc1)[C@@H](O)[C@H](C(=O)[*:2])N(C)[*:1]; X6 = C[C@H](CCN1CCOC[C@H]1C)[C@@H](O)[C@H](C(=O)[*:2])N(C)[*:1]; X7 = C[C@H](CCN(C)Cc1ccnn1C)[C@@H](O)[C@H](C(=O)[*:2])N(C)[*:1]; X23 = COC1CN(CC[C@@H](C)[C@@H](O)[C@H](C(=O)[*:2])N(C)[*:1])C1; X31 = COCCN(C)CC[C@@H](C)[C@@H](O)[C@H](C(=O)[*:2])N(C)[*:1]; X16 = C[C@H](CCN1CCOCC1)[C@@H](O)[C@H](C(=O)[*:2])N(C)[*:1]; X25 = CC(C)NCC[C@@H](C)[C@@H](O)[C@H](C(=O)[*:2])N(C)[*:1]; d(aThr) = C[C@@H](O)[C@@H](N)C(=O)O; NMeL = CN[C@@H](CC(C)C)C(=O)O; dNMeL = CN[C@H](CC(C)C)C(=O)O; dNMeV = CN[C@@H](C(=O)O)C(C)C; Hiv = CC(C)[C@H](O)C(=O)O; dAbu = CC[C@@H](N)C(=O)O; Sar = CNCC(=O)O
# Columns and labels:
# [1] = molecular target: T1, cyclophilin A (Cyp A) (Homo sapiens, UniProt P62937); assay: Protease-free PPIase assay, cyclophilin A; assay type: biochemical
# T1 construct: purchased Sigma C3805
# Outline: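 Protease-free cis-trans isomerisation: 2 nM recombinant human cyclophilin A with 60 μM succinimide-peptide substrate in 35 mM HEPES pH 7.8 plus DTT, at 10.0 °C, max 0.5% DMSO. Absorbance at 330 nm was fitted to first-order kinetics, background subtracted, and catalytic rates versus inhibitor concentration gave Ki.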
# [2] = molecular target: cyclophilin D (Cyp D) (Homo sapiens, UniProt P30405); assay: Protease-free PPIase assay, cyclophilin D; assay type: biochemical
# Outline: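 Cis-trans isomerization of a succinimide-peptide substrate (60 µM final) by 2 nM enzyme was followed at 330 nm in 35 mM HEPES pH 7.8 with 50 µM DTT, stirred at 10.0 °C, DMSO ≤0.5%. First-order rate constants minus background were fitted against inhibitor concentration to give Ki.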
# [3] = Water solubility assay (pH 7.8 buffer); assay type: physicochemical
# Outline: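 DMSO stocks were diluted into 35 mM HEPES pH 7.8 to final 0–100 μM with 1% DMSO, in triplicate. Plates were shaken 18 h at 25 °C, then precipitation was detected as increased absorbance at 650 nm. Values give the concentration (μM) at which the compound remains in solution.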
# [4] = protease-free PPIase assay, class symbols, read-out: CypA Ki
# [5] = protease-free PPIase assay, class symbols, read-out: CypD Ki
# [6] = 35 mM HEPES buffer, 35 mM HEPES pH 7.8, 1% DMSO, 25° C., 18 h, concentration at which compound remains in solution, read-out: Solubility
# cyclophilin D (Cyp D), sequence (P30405 30-207): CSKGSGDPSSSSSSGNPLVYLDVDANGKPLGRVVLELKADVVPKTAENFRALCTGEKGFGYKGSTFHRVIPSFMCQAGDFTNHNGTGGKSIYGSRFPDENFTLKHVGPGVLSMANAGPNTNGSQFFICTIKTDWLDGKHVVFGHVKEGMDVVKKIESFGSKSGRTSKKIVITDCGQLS
# T1 sequence (P62937 whole entry): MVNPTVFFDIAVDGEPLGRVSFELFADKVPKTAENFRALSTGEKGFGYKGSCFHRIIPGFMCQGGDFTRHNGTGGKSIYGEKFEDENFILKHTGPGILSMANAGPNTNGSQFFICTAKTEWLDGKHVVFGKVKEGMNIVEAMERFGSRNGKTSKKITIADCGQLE
SMILES,Ki [1] [nM],Ki [2] [nM],solubility at 18 h ([3]; pH 7.8) [µM],"Ki [1, 4] [nM]","Ki [2, 5] [nM]","solubility at 18 h [3, 6] [µM]"
"CC(C)C[C@@H]1C(=O)N[C@H](CC(C)C)C(=O)N(C)[C@H](C(C)C)C(=O)N(C)[C@H]([C@H](O)[C@H](C)CCN(C)Cc2ccnn2C)C(=O)N[C@H]([C@@H](C)O)C(=O)N(C)CC(=O)N(C)[C@@H](CC(C)C)C(=O)N[C@H](CC(C)C)C(=O)N(C)[C@H](CC(C)C)C(=O)N[C@H](C)C(=O)O[C@@H](C(C)C)C(=O)N1C [Example 5, cyclo-{(3R,4R,5S)-4-(hydroxy)-3-methyl-5-(methylamino)-1-N-[methyl-(2-methyl-2H-pyrazol-3-ylmethyl)-amino]-hexanoic acid-Thr-Sar-MeLeu-Leu-MeLeu-Ala-D-Hiv-MeLeu-Leu-MeVal}] (cyclo([Hiv][dNMeL][dL][dNMeV][X7][d(aThr)][Sar][NMeL][dL][dNMeL][dA]))",,,,1 to 25,1 to 25,50 to 75
"COCCN(C)CC[C@@H](C)[C@@H](O)[C@@H]1C(=O)N[C@H]([C@@H](C)O)C(=O)N(C)CC(=O)N(C)[C@@H](CC(C)C)C(=O)N[C@H](CC(C)C)C(=O)N(C)[C@H](CC(C)C)C(=O)N[C@H](C)C(=O)O[C@@H](C(C)C)C(=O)N(C)[C@H](CC(C)C)C(=O)N[C@H](CC(C)C)C(=O)N(C)[C@H](C(C)C)C(=O)N1C [Example 10, cyclo-{(3R,4R,5S)-4-(hydroxy)-3-methyl-5-(methylamino)-1-N-[(2-methoxy-ethyl)-methyl-amino]-hexanoic acid-Thr-Sar-MeLeu-Leu-MeLeu-Ala-D-Hiv-MeLeu-Leu-MeVal}] (cyclo([Hiv][dNMeL][dL][dNMeV][X31][d(aThr)][Sar][NMeL][dL][dNMeL][dA]))",25 to 100,1 to 25,> 100,,,
"CC(C)C[C@@H]1C(=O)N[C@H](CC(C)C)C(=O)N(C)[C@H](C(C)C)C(=O)N(C)[C@H]([C@H](O)[C@H](C)CCNC(C)C)C(=O)N[C@H]([C@@H](C)O)C(=O)N(C)CC(=O)N(C)[C@@H](CC(C)C)C(=O)N[C@H](CC(C)C)C(=O)N(C)[C@H](CC(C)C)C(=O)N[C@H](C)C(=O)O[C@@H](C(C)C)C(=O)N1C [Example 37, cyclo-[(3R,4R,5S)-4-hydroxy-1-isopropylamino-3-methyl-5-methylamino-hexanoic acid-Thr-Sar-MeLeu-Leu-MeLeu-Ala-D-Hiv-MeLeu-Leu-MeVal]] (cyclo([Hiv][dNMeL][dL][dNMeV][X25][d(aThr)][Sar][NMeL][dL][dNMeL][dA]))",25 to 100,1 to 25,> 100,,,
"CC(C)C[C@@H]1C(=O)N[C@H](CC(C)C)C(=O)N(C)[C@H](C(C)C)C(=O)N(C)[C@H]([C@H](O)[C@H](C)CCN2CCCC(C(F)(F)F)C2)C(=O)N[C@H]([C@@H](C)O)C(=O)N(C)CC(=O)N(C)[C@@H](CC(C)C)C(=O)N[C@H](CC(C)C)C(=O)N(C)[C@H](CC(C)C)C(=O)N[C@H](C)C(=O)O[C@@H](C(C)C)C(=O)N1C (stereo partly drawn) [Example 9, cyclo-{(3R,4R,5S)-4-(hydroxy)-3-methyl-5-(methylamino)-1-N-[3-trifluoromethyl-piperidinyl]-hexanoic acid-Thr-Sar-MeLeu-Leu-MeLeu-Ala-D-Hiv-MeLeu-Leu-MeVal}] (cyclo([Hiv][dNMeL][dL][dNMeV][X19][d(aThr)][Sar][NMeL][dL][dNMeL][dA]))",,,,1 to 25,1 to 25,10 to 25
"CC(C)C[C@@H]1C(=O)N[C@H](CC(C)C)C(=O)N(C)[C@H](C(C)C)C(=O)N(C)[C@H]([C@H](O)[C@H](C)C/C=C/c2cccc(N3CCOCC3)n2)C(=O)N[C@H]([C@@H](C)O)C(=O)N(C)CC(=O)N(C)[C@@H](CC(C)C)C(=O)N[C@H](CC(C)C)C(=O)N(C)[C@H](CC(C)C)C(=O)N[C@H](C)C(=O)O[C@@H](C(C)C)C(=O)N1C [Example 18, cyclo-{(3R,4R,5S)-4-(hydroxy)-3-methyl-5-(methylamino)-1-(6-morpholin-4-yl-pyridin-2-yl)-hept-1-enoic acid-Thr-Sar-MeLeu-Leu-MeLeu-Ala-D-Hiv-MeLeu-Leu-MeVal}] (cyclo([Hiv][dNMeL][dL][dNMeV][X26][d(aThr)][Sar][NMeL][dL][dNMeL][dA]))",,,,1 to 25,1 to 25,10 to 25

# Other lines, results leading:
Ki [1] [nM],Ki [2] [nM],solubility at 18 h ([3]; pH 7.8) [µM],"Ki [1, 4] [nM]","Ki [2, 5] [nM]","solubility at 18 h [3, 6] [µM]",SMILES
1 to 25,1 to 25,25 to 50,,,,"CC[C@H]1NC(=O)[C@@H]([C@H](O)[C@H](C)CCN2CCOCC2)N(C)C(=O)[C@@H](C(C)C)N(C)C(=O)[C@@H](CC(C)C)NC(=O)[C@@H](CC(C)C)N(C)C(=O)[C@H](C(C)C)OC(=O)[C@@H](C)NC(=O)[C@@H](CC(C)C)N(C)C(=O)[C@@H](CC(C)C)NC(=O)[C@H](CC(C)C)N(C)C(=O)CN(C)C1=O [Example 13, cyclo-[(3R,4R,5S)-4-(hydroxy)-3-methyl-5-(methylamino)-1-N-morpholino-hexanoic acid-Abu-Sar-MeLeu-Leu-MeLeu-Ala-D-Hiv-MeLeu-Leu-MeVal]] (cyclo([Hiv][dNMeL][dL][dNMeV][X16][dAbu][Sar][NMeL][dL][dNMeL][dA]))"
1 to 25,1 to 25,25 to 50,,,,"CC(C)C[C@@H]1C(=O)N[C@H](CC(C)C)C(=O)N(C)[C@H](C(C)C)C(=O)N(C)[C@H]([C@H](O)[C@H](C)CCN(C)Cc2nnn[nH]2)C(=O)N[C@H]([C@@H](C)O)C(=O)N(C)CC(=O)N(C)[C@@H](CC(C)C)C(=O)N[C@H](CC(C)C)C(=O)N(C)[C@H](CC(C)C)C(=O)N[C@H](C)C(=O)O[C@@H](C(C)C)C(=O)N1C [Example 6, cyclo-{(3R,4R,5S)-4-(hydroxy)-3-methyl-5-(methylamino)-1-N-[methyl-(1H-tetrazol-5-ylmethyl)-amino]-hexanoic acid-Thr-Sar-MeLeu-Leu-MeLeu-Ala-D-Hiv-MeLeu-Leu-MeVal}] (cyclo([Hiv][dNMeL][dL][dNMeV][X30][d(aThr)][Sar][NMeL][dL][dNMeL][dA]))"
25 to 100,25 to 100,> 100,,,,"CC(C)C[C@@H]1C(=O)N[C@H](CC(C)C)C(=O)N(C)[C@H](C(C)C)C(=O)N(C)[C@H]([C@H](O)[C@H](C)CCN2CCOC[C@H]2C)C(=O)N[C@H]([C@@H](C)O)C(=O)N(C)CC(=O)N(C)[C@@H](CC(C)C)C(=O)N[C@H](CC(C)C)C(=O)N(C)[C@H](CC(C)C)C(=O)N[C@H](C)C(=O)O[C@@H](C(C)C)C(=O)N1C [Example 29, cyclo-[(3R,4R,5S)-4-(hydroxy)-3-methyl-5-(methylamino)-1-N—((R)-3-Methyl-morpholine)-hexanoic acid-Thr-Sar-MeLeu-Leu-MeLeu-Ala-D-Hiv-MeLeu-Leu-MeVal]] (cyclo([Hiv][dNMeL][dL][dNMeV][X6][d(aThr)][Sar][NMeL][dL][dNMeL][dA]))"
1 to 25,1 to 25,25 to 50,,,,"CC(C)C[C@@H]1C(=O)N[C@H](CC(C)C)C(=O)N(C)[C@H](C(C)C)C(=O)N(C)[C@H]([C@H](O)[C@H](C)CCN2CCC(F)(F)CC2)C(=O)N[C@H]([C@@H](C)O)C(=O)N(C)CC(=O)N(C)[C@@H](CC(C)C)C(=O)N[C@H](CC(C)C)C(=O)N(C)[C@H](CC(C)C)C(=O)N[C@H](C)C(=O)O[C@@H](C(C)C)C(=O)N1C [Example 24, cyclo-[(3R,4R,5S)-4-(hydroxy)-3-methyl-5-(methylamino)-1-N-(4,4-difluoro-piperidine)-hexanoic acid-Thr-Sar-MeLeu-Leu-MeLeu-Ala-D-Hiv-MeLeu-Leu-MeVal]] (cyclo([Hiv][dNMeL][dL][dNMeV][X20][d(aThr)][Sar][NMeL][dL][dNMeL][dA]))"
1 to 25,1 to 25,25 to 50,,,,"CC(C)C[C@@H]1C(=O)N[C@H](CC(C)C)C(=O)N(C)[C@H](C(C)C)C(=O)N(C)[C@H]([C@H](O)[C@H](C)CC(=O)NCc2ccccc2)C(=O)N[C@H]([C@@H](C)O)C(=O)N(C)CC(=O)N(C)[C@@H](CC(C)C)C(=O)N[C@H](CC(C)C)C(=O)N(C)[C@H](CC(C)C)C(=O)N[C@H](C)C(=O)O[C@@H](C(C)C)C(=O)N1C [Example 36, cyclo-[(3R,4R,5S)-1-benzylcarbamoyl-3-methyl-5-methylamino-4-hydroxy-pentanoic acid-Thr-Sar-MeLeu-Leu-MeLeu-Ala-D-Hiv-MeLeu-Leu-MeVal]] (cyclo([Hiv][dNMeL][dL][dNMeV][X9][d(aThr)][Sar][NMeL][dL][dNMeL][dA]))"
1 to 25,1 to 25,> 100,,,,"COC1CN(CC[C@@H](C)[C@@H](O)[C@@H]2C(=O)N[C@H]([C@@H](C)O)C(=O)N(C)CC(=O)N(C)[C@@H](CC(C)C)C(=O)N[C@H](CC(C)C)C(=O)N(C)[C@H](CC(C)C)C(=O)N[C@H](C)C(=O)O[C@@H](C(C)C)C(=O)N(C)[C@H](CC(C)C)C(=O)N[C@H](CC(C)C)C(=O)N(C)[C@H](C(C)C)C(=O)N2C)C1 [Example 11, cyclo-{(3R,4R,5S)-4-(hydroxy)-3-methyl-5-(methylamino)-1-N-(3-methoxy-azetidinyl)-hexanoic acid-Thr-Sar-MeLeu-Leu-MeLeu-Ala-D-Hiv-MeLeu-Leu-MeVal}] (cyclo([Hiv][dNMeL][dL][dNMeV][X23][d(aThr)][Sar][NMeL][dL][dNMeL][dA]))"
